Assay results: patent publication US10575525B2, “Benzoxazole compound or salt thereof, agricultural and horticultural insecticide comprising the compound, and method for using the insecticide” (Nihon Nohyaku Co., Ltd., priority 2016, dated 2020)

Key:
[1] = tested on: Laodelphax striatella; assay: Insecticidal test on Laodelphax striatella (rice seedling dip); type: in vivo; settings: Laodelphax striatellus, 192 h, rice seedlings dipped 30 seconds, 3rd-instar larvae, 8 days after inoculation, read-out: corrected mortality rate, activity level
Description: Insecticidal test on Laodelphax striatella
The benzoxazole compounds represented by the general formula (1) of the present invention or salts thereof were separately dispersed in water and diluted to 500 ppm. Rice plant seedlings (variety: Nihonbare) were dipped in the agrochemical dispersions for 30 seconds. After air-dried, each seedling was put into a separate glass test tube and inoculated with ten 3rd-instar larvae of Laodelphax striatella, and then the glass test tubes were capped with cotton plugs. At 8 days after the inoculation, the numbers of surviving larvae and dead larvae were counted, the corrected mortality rate was calculated according to the formula shown below and evaluated according to the criteria shown below. Corrected mortality rate (%)=100×(Survival rate in a non-treatment plot−Survival rate in a treatment plot)/Survival rate in a non-treatment plot [Math. 2] Criteria A: the corrected mortality rate is 100%. B: the corrected mortality rate is 90 to 99%. C: the corrected mortality rate is 80 to 89%. D: the corrected mortality rate is 50 to 79%.

[2] = tested on: Plutella xylostella; assay: Insecticidal test on Plutella xylostella (dip of Chinese cabbage seedlings with laid eggs); type: in vivo; settings: 144 h, seedlings with eggs dipped about 30 seconds, 25° C., 6 days after dip treatment, criteria of Test Example 2, read-out: insecticidal effect (corrected mortality rate), activity level
Description: Insecticidal test on Plutella xylostella
Adults of Plutella xylostella were released onto Chinese cabbage seedlings and allowed to lay eggs thereon. At 2 days after the release of the adults, the Chinese cabbage seedlings with laid eggs were dipped for about 30 seconds in agrochemical aqueous dispersions diluted to 500 ppm, each of which contained a different kind of benzoxazole compound represented by the general formula (1) of the present invention as an active ingredient. After air-dried, the seedlings were kept in a thermostatic chamber at 25° C. At 6 days after the dip treatment, the number of hatched larvae per plot was counted, the mortality rate was calculated according to the formula shown below, and the insecticidal effect was evaluated according to the criteria of Test Example 2. This test was conducted in triplicate using 10 adults of Plutella xylostella per plot. Corrected mortality rate (%)=100×(Number of hatched larvae in a non-treatment plot−Number of hatched larvae in a treatment plot)/Number of hatched larvae in a non-treatment plot [Math. 3]

Row | SMILES | mortality at 500 ppm [1] | mortality at 500 ppm [2]
1 | CCS(=O)(=O)c1cc(C2CC2)cnc1-c1nc2cc(OC(F)(F)F)ccc2o1 [Compound 1-3, 2-(5-Cyclopropyl-3-ethylsulfonylpyridin-2-yl)-5-(trifluoromethoxy)benzo[d]oxazole] | 100% | 100%
2 | CCS(=O)(=O)c1cc(C2CC2)cnc1-c1nc2cc([S+]([O-])C(F)(F)F)ccc2o1 (stereo not shown) [Compound 1-12, 2-(5-Cyclopropyl-3-ethylsulfonylpyridin-2-yl)-5-(trifluoromethylsulfinyl)benzo[d]oxazole] | 100% | 100%
